Data as given in patent US7994140B2, “Classes of compounds that interact with GPCRs” (Alchemia Limited, priority 2002, dated 2011).

Molecular target: T1, SST5 (Homo sapiens, UniProt P35346)
T1 construct: purchased Perkin Elmer BioSignal; host or cells: HEK 293
Assay: GPCR radioligand binding (RLB) assay, somatostatin SST5, [125I]SST-14
Conditions: for SST5 inhibition at 10 micromolar: 10 micromolar compound, recombinant human receptor membranes (HEK 293); for SSTS inhibition at 10 micromolar: Example Library 4
Protocol: Recombinant human receptors expressed in HEK 293 cells were used for all experiments. Receptor membrane preparations were purchased from Perkin Elmer BioSignal. The labelled ligand used in somatostatin GPCR RLB assays was [^125I]SST-14 and in melanocortin assays was [^125I]NDP-αMSH. All assays were done in a 96-well plate format using either glass fiber filter mats or filter plates. All reagents purchased were of the highest quality.
Specific assay buffer, incubation and washing conditions were optimized for each receptor however they all followed the same general format. The procedures for both filter mat and filter plate formats are based on the receptor manufacturers recommendations or those described extensively in the literature. The procedures are briefly outlined below.
In assays where filter mats are used we incubate receptor membranes, assay buffer and [^125I] labelled ligand in 96 well microplates. Add compounds to incubation mixture and continue incubation for optimized period. Presoak Filter mat GF/B in 0.5% PEI for ˜2 hr at 4° C. On completion of assay mixture incubation add additional 100 μL/well of assay buffer immediately prior to filtration. Filter the assay mixture onto the GF/B filter mat using a cell harvester. Dry the filter mats prior to sealing them into a scintillation counting bag with scintillant. Radioactivity in each well is detected by liquid scintillation counting.
In assays where filter plates are used Multiscreen glass fiber filter plates (Millipore, Cat No MAFCNOB10) are precoated with 0.5% PEI for ˜2 hr at 4° C. All wells are then washed with 200 µl/well assay buffer and filtered using the Multiscreen Separation System. Subsequently receptor membranes, assay buffer and labelled ligands are added to the wells and equilibrated. Compounds for testing are then added to the mixture and incubation is continued for an optimized time. Plates are then put into the Multiscreen Separation System and the assay mixture is filtered through the plate under vacuum. Each well is then washed several times with assay buffer. Plates are then dried prior to putting sealing tape onto the bottom of the plate. Scintillant is added to each well and radioactivity measured by liquid scintillation counting.
Raw data was analysed according to standard methods using either GraphPad Prism software or IDDBS ActivityBase software.

T1 sequence (P35346 whole entry): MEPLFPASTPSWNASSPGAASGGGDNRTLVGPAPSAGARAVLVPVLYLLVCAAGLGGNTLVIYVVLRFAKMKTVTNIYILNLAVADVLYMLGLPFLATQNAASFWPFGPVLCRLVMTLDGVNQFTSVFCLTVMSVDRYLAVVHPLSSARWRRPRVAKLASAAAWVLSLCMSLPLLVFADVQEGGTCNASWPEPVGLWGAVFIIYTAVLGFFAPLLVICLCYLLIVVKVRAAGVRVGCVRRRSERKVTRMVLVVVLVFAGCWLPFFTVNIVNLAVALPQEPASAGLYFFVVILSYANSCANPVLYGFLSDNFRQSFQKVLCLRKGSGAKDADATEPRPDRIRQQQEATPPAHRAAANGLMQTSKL

For `COC[C@H]1OC(OCc2ccc3ccccc3c2)[C@H](NC(=O)CCCN)[C@@H](OCc2ccc(Cl)cc2)[C@@H]1O` (some centres unmarked) [Compound 42], the “SST5 inhibition at 10 micromolar” value was “+ (Indicates inhibition greater than . . . 50%)”.
`COC[C@H]1OC(OCc2ccc(Cl)cc2)[C@H](NC(=O)CCCN)[C@@H](OCc2ccc(-c3ccccc3)cc2)[C@@H]1O` (some centres unmarked) [Compound 44] was tested, and the “SST5 inhibition at 10 micromolar” value was “+ (Indicates inhibition greater than . . . 50%)”.
In the case of `COC[C@H]1OC(OCc2ccc(Cl)cc2)[C@H](NC(=O)CCCNC(=N)N)[C@@H](OCc2ccccc2)[C@@H]1O` (some centres unmarked) [Compound 47], the “SST5 inhibition at 10 micromolar” value is reported as “+ (Indicates inhibition greater than . . . 50%)”.
For `COC[C@H]1OC(OCCc2ccccc2)[C@H](NC(=O)CCCN)[C@@H](OCc2ccc(-c3ccccc3)cc2)[C@@H]1O` (some centres unmarked) [Compound 48], the “SST5 inhibition at 10 micromolar” value was “+ (Indicates inhibition greater than . . . 50%)”.
In the case of `COC[C@H]1OC(OCCc2ccccc2)[C@H](NC(=O)CCCN)[C@@H](OCc2ccc3ccccc3c2)[C@@H]1O` (some centres unmarked) [Compound 50], the “SST5 inhibition at 10 micromolar” value is reported as “+ (Indicates inhibition greater than . . . 50%)”.
`COC[C@H]1OC(OCCc2ccccc2)[C@H](NC(=O)CCCN)[C@@H](OCc2ccc(Cl)cc2)[C@@H]1O` (some centres unmarked) [Compound 51] was tested, and the “SST5 inhibition at 10 micromolar” value was “+ (Indicates inhibition greater than . . . 50%)”.
With `COC[C@H]1OC(OCCc2ccccc2)[C@H](NC(=O)CCCNC(=N)N)[C@@H](OCc2ccc(Cl)cc2)[C@@H]1O` (some centres unmarked) [Compound 52] the “SST5 inhibition at 10 micromolar” value was “+ (Indicates inhibition greater than . . . 50%)”.
`COC[C@H]1OC(OCc2ccccc2)[C@H](NC(=O)CCCN)[C@@H](OCc2ccc3ccccc3c2)[C@@H]1O` (some centres unmarked) [Compound 54] was tested, and the “SST5 inhibition at 10 micromolar” value was “+ (Indicates inhibition greater than . . . 50%)”.
In the case of `COC[C@H]1OC(OCc2ccc(Cl)cc2)[C@H](NC(=O)CCCN)[C@@H](OCc2ccc(Cl)cc2)[C@@H]1O` (some centres unmarked) [Compound 55], the “SST5 inhibition at 10 micromolar” value is reported as “+ (Indicates inhibition greater than . . . 50%)”.
`CO[C@H]1[C@H](O)[C@@H](COCc2ccc3ccccc3c2)OC(OCc2ccc(-c3ccccc3)cc2)[C@@H]1NC(=O)CCNC(=N)N` (some centres unmarked) [Compound 60] was tested, and the “SST5 inhibition at 10 micromolar” value was “+ (Indicates inhibition greater than . . . 50%)”.
`CO[C@H]1[C@H](O)[C@@H](COCc2ccccc2)OC(OCc2ccc(Cl)cc2)[C@@H]1NC(=O)CCCN` (some centres unmarked) [Compound 91] was tested, and the “SST5 inhibition at 10 micromolar” value was “+ (Indicates inhibition greater than . . . 50%)”.
For `CO[C@H]1[C@H](O)[C@@H](COCc2cccc(O)c2)OC(OCc2ccc3ccccc3c2)[C@@H]1NC(=O)CCCN` (some centres unmarked) [Compound 109], the “SST5 inhibition at 10 micromolar” value was “+ (Indicates inhibition greater than . . . 50%)”.
`CO[C@H]1[C@H](O)[C@@H](COCc2cccc(O)c2)OC(OCc2ccc(Cl)cc2)[C@@H]1NC(=O)CCCN` (some centres unmarked) [Compound 111] was tested, and the “SST5 inhibition at 10 micromolar” value was “+ (Indicates inhibition greater than . . . 50%)”.
`CO[C@H]1[C@H](O)[C@@H](COCc2ccc(Cl)cc2)OC(OCc2cccc(O)c2)[C@@H]1NC(=O)CCCN` (some centres unmarked) [Compound 118] was tested, and the “SST5 inhibition at 10 micromolar” value was “+ (Indicates inhibition greater than . . . 50%)”.
For `CSC1OC(COCc2ccccc2)C(O)C(OCc2ccccc2)C1NC(=O)CN` (centres unmarked) [Compound 119], the “SST5 inhibition at 10 micromolar” value was “+ (Indicates inhibition greater than . . . 50%)”.
For `CSC1OC(COCc2ccccc2)C(O)C(OCc2ccccc2)C1NC(=O)CCCN` (centres unmarked) [Compound 123], the “SST5 inhibition at 10 micromolar” value was “+ (Indicates inhibition greater than . . . 50%)”.
In the case of `CSC1OC(COCc2ccc(Cl)cc2)C(O)C(OCc2ccccc2)C1NC(=O)CN` (centres unmarked) [Compound 125], the “SST5 inhibition at 10 micromolar” value is reported as “+ (Indicates inhibition greater than . . . 50%)”.
With `CSC1OC(COCc2ccc(Cl)cc2)C(O)C(OCc2ccccc2)C1NC(=O)CCN` (centres unmarked) [Compound 127] the “SST5 inhibition at 10 micromolar” value was “+ (Indicates inhibition greater than . . . 50%)”.
`CSC1OC(COCc2ccc(-c3ccccc3)cc2)C(O)C(OCc2ccccc2)C1NC(=O)CN` (centres unmarked) [Compound 131] was tested, and the “SST5 inhibition at 10 micromolar” value was “+ (Indicates inhibition greater than . . . 50%)”.
`CSC1OC(COCc2ccccc2)C(O)C(OCc2ccc(Cl)cc2)C1NC(=O)CN` (centres unmarked) [Compound 143] was tested, and the “SST5 inhibition at 10 micromolar” value was “+ (Indicates inhibition greater than . . . 50%)”.
In the case of `CSC1OC(COCc2ccccc2)C(O)C(OCc2ccc(Cl)cc2)C1NC(=O)CCCN` (centres unmarked) [Compound 147], the “SST5 inhibition at 10 micromolar” value is reported as “+ (Indicates inhibition greater than . . . 50%)”.
In the case of `CSC1OC(COCc2ccc(Cl)cc2)C(O)C(OCc2ccc(Cl)cc2)C1NC(=O)CN` (centres unmarked) [Compound 149], the “SST5 inhibition at 10 micromolar” value is reported as “+ (Indicates inhibition greater than . . . 50%)”.
For `CSC1OC(COCc2ccc(Cl)cc2)C(O)C(OCc2ccc(Cl)cc2)C1NC(=O)CCCN` (centres unmarked) [Compound 153], the “SST5 inhibition at 10 micromolar” value was “+ (Indicates inhibition greater than . . . 50%)”.
`CSC1OC(COCc2ccc(-c3ccccc3)cc2)C(O)C(OCc2ccc(-c3ccccc3)cc2)C1NC(=O)CCCNC(=N)N` (centres unmarked) [Compound 184] was tested, and the “SST5 inhibition at 10 micromolar” value was “+ (Indicates inhibition greater than . . . 50%)”.
`CSC1OC(COCc2ccccc2)C(O)C(OCc2ccc3ccccc3c2)C1NC(=O)CCN` (centres unmarked) [Compound 193] was tested, and the “SST5 inhibition at 10 micromolar” value was “+ (Indicates inhibition greater than . . . 50%)”.
`COCC1OC(OCc2ccccc2)C(NC(=O)CN)C(OCc2ccccc2)C1O` (centres unmarked) [Compound 213] was tested, and the “SSTS inhibition at 10 micromolar” value was “+ (Indicates inhibition greater than . . . 50%)”.
`COCC1OC(OCc2ccccc2)C(NC(=O)CCN)C(OCc2ccccc2)C1O` (centres unmarked) [Compound 215] was tested, and the “SSTS inhibition at 10 micromolar” value was “+ (Indicates inhibition greater than . . . 50%)”.
For `COCC1OC(OCc2ccccc2)C(NC(=O)CCCN)C(OCc2ccccc2)C1O` (centres unmarked) [Compound 217], the “SSTS inhibition at 10 micromolar” value was “+ (Indicates inhibition greater than . . . 50%)”.
`COCC1OC(OCc2ccccc2)C(NC(=O)CN)C(OCc2ccc3ccccc3c2)C1O` (centres unmarked) [Compound 231] was tested, and the “SSTS inhibition at 10 micromolar” value was “+ (Indicates inhibition greater than . . . 50%)”.
With `COCC1OC(OCc2ccc(Cl)cc2)C(NC(=O)CCN)C(OCc2ccccc2)C1O` (centres unmarked) [Compound 238] the “SSTS inhibition at 10 micromolar” value was “+ (Indicates inhibition greater than . . . 50%)”.
For `COCC1OC(OCc2ccc(Cl)cc2)C(NC(=O)CCCN)C(OCc2ccccc2)C1O` (centres unmarked) [Compound 240], the “SSTS inhibition at 10 micromolar” value was “+ (Indicates inhibition greater than . . . 50%)”.
In the case of `COCC1OC(OCCc2ccccc2)C(NC(=O)CN)C(OCc2ccccc2)C1O` (centres unmarked) [Compound 260], the “SSTS inhibition at 10 micromolar” value is reported as “+ (Indicates inhibition greater than . . . 50%)”.
For `COCC1OC(OCCc2ccccc2)C(NC(=O)CCN)C(OCc2ccccc2)C1O` (centres unmarked) [Compound 262], the “SSTS inhibition at 10 micromolar” value was “+ (Indicates inhibition greater than . . . 50%)”.
`COCC1OC(OCCc2ccccc2)C(NC(=O)CCCN)C(OCc2ccccc2)C1O` (centres unmarked) [Compound 264] was tested, and the “SSTS inhibition at 10 micromolar” value was “+ (Indicates inhibition greater than . . . 50%)”.
With `COCC1OC(OCCc2ccccc2)C(NC(=O)CN)C(OCc2ccc(Cl)cc2)C1O` (centres unmarked) [Compound 266] the “SSTS inhibition at 10 micromolar” value was “+ (Indicates inhibition greater than . . . 50%)”.
In the case of `COCC1OC(OCc2ccc3ccccc3c2)C(NC(=O)CN)C(OCc2ccccc2)C1O` (centres unmarked) [Compound 284], the “SSTS inhibition at 10 micromolar” value is reported as “+ (Indicates inhibition greater than . . . 50%)”.
With `COCC1OC(OCc2ccc3ccccc3c2)C(NC(=O)CCCN)C(OCc2ccccc2)C1O` (centres unmarked) [Compound 288] the “SSTS inhibition at 10 micromolar” value was “+ (Indicates inhibition greater than . . . 50%)”.
With `COCC1OC(OCc2ccc3ccccc3c2)C(NC(=O)CCCNC(=N)N)C(OCc2ccccc2)C1O` (centres unmarked) [Compound 289] the “SSTS inhibition at 10 micromolar” value was “+ (Indicates inhibition greater than . . . 50%)”.
`COCC1OC(OCc2ccc3ccccc3c2)C(NC(=O)CN)C(OCc2ccc(Cl)cc2)C1O` (centres unmarked) [Compound 290] was tested, and the “SSTS inhibition at 10 micromolar” value was “+ (Indicates inhibition greater than . . . 50%)”.
For `COCC1OC(OCc2ccc3ccccc3c2)C(NC(=O)CCN)C(OCc2ccc(Cl)cc2)C1O` (centres unmarked) [Compound 292], the “SSTS inhibition at 10 micromolar” value was “+ (Indicates inhibition greater than . . . 50%)”.
`COCC1OC(OCc2ccc3ccccc3c2)C(NC(=O)CN)C(OCc2ccc(-c3ccccc3)cc2)C1O` (centres unmarked) [Compound 296] was tested, and the “SSTS inhibition at 10 micromolar” value was “+ (Indicates inhibition greater than . . . 50%)”.
With `COCC1OC(OCc2ccc3ccccc3c2)C(NC(=O)CCN)C(OCc2ccc3ccccc3c2)C1O` (centres unmarked) [Compound 304] the “SSTS inhibition at 10 micromolar” value was “+ (Indicates inhibition greater than . . . 50%)”.
`COCC1OC(OCc2ccc3ccccc3c2)C(NC(=O)CCCN)C(OCc2ccc3ccccc3c2)C1O` (centres unmarked) [Compound 306] was tested, and the “SSTS inhibition at 10 micromolar” value was “+ (Indicates inhibition greater than . . . 50%)”.
`CSC1OC(COC(=O)Cc2c[nH]c3ccccc23)C(O)C(OCc2cccc(N)c2)C1NCc1ccccc1` (centres unmarked) [Compound 310] was tested, and the “SST5 inhibition at 10 micromolar” value was “+ (Indicates inhibition greater than . . . 50%)”.
